Results taken from patent US12419888B2, “Methods of treating elevated plasma cholesterol” (INSTITUT DE CARDIOLOGIE DE MONTREAL, priority 2020, dated 2025).

Each compound was assayed on LDLR protein levels in HepG2 cells (assay: Western blot analysis of relative LDLR protein levels in HepG2 cells after treatment). Settings: HepG2 cells incubated overnight with compound, 0.2 μM to 20 μM.
Type: cell-based, human
Protocol: Cell culture, treatments and cell viability assay. For phenotypic screening of PCSK9 modulators and/or LDLR small molecule inducers, human HepG2 cells were incubated overnight in conditioned media containing chemical compounds resuspended in DMSO at concentration ranging from 0.2 μM to 20 μM. […] Following incubation, media have been replaced and cells incubated for 4 h with 100 μL of phenol red-free DMEM containing 0.5 mg/mL of MTT (3-[4,5-dimethylthiazol-2-yl]-2,5-diphenyltetrazolium bromide; thiazolyl blue; catalog no. M5655, Sigma-Aldrich), following manufacturer's instructions.
Western Blot Analysis, Immunocytochemistry and LDLR Activity Assay. Following incubation, cells were washed three times in phosphate-buffered saline (PBS) and lysed in radioimmune precipitation assay buffer (50 mM Tris/HCl, pH 8.0, 1% (v/v) Nonidet P-40, 0.5% sodium deoxycholate, 150 mM NaCl, and 0.1% (v/v) SDS) supplemented with a complete protease inhibitor mixture (catalog no. 11 697 498 001, Roche Applied Science). Proteins were separated by SDS polyacrylamide gel electrophoresis, blotted on nitrocellulose membranes (Bio-Rad), blocked incubated with indicated antibodies as described (Poirier S, et al., Cell Rep, 2015). For immunocytochemistry analysis, cells were permeabilized or not with 0.1% Triton X-100/PBS for 10 min, and incubated with 150 mM glycine, blocked and incubated with indicated primary and secondary antibodies. Immunofluorescence analyses were performed with an Olympus FluoView FV10i confocal microscope (Poirier et al., Cell Rep. 2015; 13(10):2064-2071). For LDLR activity assay, HepG2 cells were incubated overnight without or with a given compound in the presence of 5 μg/ml fluorescent labelled DiI-LDL (Alfa Aesar, Cat. #J65330) and co-stained for LDLR if applicable, as described (Poirier et al., J Biol Chem. 2009; 284(42):28856-28864). Immunofluorescence analyses were performed with an Olympus FluoView FV10i confocal microscope.

Compound | LDLR Fold (relative LDLR protein levels) [Fold]
3-(1,3-benzodioxol-5-yl)-1-[(1S)-1-(6-methylpyridin-2-yl)-1,3,4,9-tetrahydropyrido[3,4-b]indol-2-yl]propan-1-one [Compound 23] | 1.2
CCOc1cccc([C@@H]2CC(c3ccc(C)cc3)=NC3(CCN(C(C)=O)CC3)N2)c1O (stereo in doubt) [Compound 3, 1-[4-(3-ethoxy-2-hydroxyphenyl)-2-(4-methylphenyl)-1,5,9-triazaspiro[5.5]undec-1-en-9-yl]ethan-1-one] | 1.8 ± 0.6
CN1C(=O)c2cc(C(=O)N3CCN(c4ccccc4)CC3)nn2C[C@]1(C)C(=O)NC1CCCCCC1 (stereo in doubt) [Compound 5, N-cycloheptyl-5,6-dimethyl-4-oxo-2-(4-phenylpiperazine-1-carbonyl)-4H,5H,6H,7H-pyrazolo[1,5-a]pyrazine-6-carboxamide] | 0.8 ± 0.0
O=C(NCCc1c[nH]c2ccccc12)c1ccc2c(c1)NC(=O)[C@H]1CCCCN21 (stereo in doubt) [Compound 8, N-[2-(1H-indol-3-yl)ethyl]-6-oxo-5,6a,7,8,9,10-hexahydropyrido[1,2-a]quinoxaline-3-carboxamide] | 1.0 ± 0.2
COc1ccc2cc([C@]3(C)NC(=O)N(CC(=O)N4CCC[C@@H]5CCCC[C@@H]54)C3=O)ccc2c1 (stereo in doubt) [Compound 15, 3-[2-(decahydroquinolin-1-yl)-2-oxoethyl]-5-(6-methoxynaphthalen-2-yl)-5-methylimidazolidine-2,4-dione] | 1.1 ± 0.6
C[C@@]1(c2ccc3ccccc3c2)NC(=O)N(CC(=O)N2CCC[C@@H]3CCCC[C@@H]32)C1=O (stereo in doubt) [Compound 17, 3-[2-(decahydroquinolin-1-yl)-2-oxoethyl]-5-methyl-5-(naphthalen-2-yl)imidazolidine-2,4-dione] | 1.2 ± 0.6
CC[C@@H]1CCCCN1C(=O)CN1C(=O)N[C@@](C)(c2ccc3ccccc3c2)C1=O (stereo in doubt) [Compound 18, 3-[2-(2-ethylpiperidin-1-yl)-2-oxoethyl]-5-methyl-5-(naphthalen-2-yl)imidazolidine-2,4-dione] | 1.4 ± 0.7
C[C@@]1(c2ccc3ccccc3c2)NC(=O)N(CC(=O)N2CCC(Cc3ccccc3)CC2)C1=O (stereo in doubt) [Compound 19, 3-[2-(4-benzylpiperidin-1-yl)-2-oxoethyl]-5-methyl-5-(naphthalen-2-yl)imidazolidine-2,4-dione] | 1.0 ± 0.5
Cc1cccc([C@@H]2c3[nH]c4ccccc4c3CCN2C(=O)CCN2CCCCC2=O)n1 (stereo in doubt) [Compound 20, 1-{3-[1-(6-methylpyridin-2-yl)-1H,2H,3H,4H,9H-pyrido[3,4-b]indol-2-yl]-3-oxopropyl}piperidin-2-one] | 1.4
CC(C)(O)C#Cc1cccc(C(=O)N2CCc3c([nH]c4ccccc34)[C@H]2c2ccccn2)c1 (stereo in doubt) [Compound 21, 2-methyl-4-{3-[1-(pyridin-2-yl)-1H,2H,3H,4H,9H-pyrido[3,4-b]indole-2-carbonyl]phenyl}but-3-yn-2-ol] | 1.0
Cc1ccc2c(CC(=O)N3CCc4c([nH]c5ccccc45)[C@H]3c3ccccn3)cc(=O)oc2c1 (stereo in doubt) [Compound 22, 7-methyl-4-{2-oxo-2-[1-(pyridin-2-yl)-1H,2H,3H,4H,9H-pyrido[3,4-b]indol-2-yl]ethyl}-2H-chromen-2-one] | 1.4
Cc1cccc([C@H]2c3[nH]c4ccccc4c3CCN2C(=O)C(=O)CCc2ccccc2)n1 (stereo in doubt) [Compound 24, 1-[1-(6-methylpyridin-2-yl)-1H,2H,3H,4H,9H-pyrido[3,4-b]indol-2-yl]-4-phenylbutane-1,2-dione] | 1.6
Cc1cccc([C@H]2c3[nH]c4ccccc4c3CCN2C(=O)CCc2ccccc2)n1 (stereo in doubt) [Compound 27, 1-[1-(6-methylpyridin-2-yl)-1H,2H,3H,4H,9H-pyrido[3,4-b]indol-2-yl]-3-phenylpropan-1-one] | 1.0
CC1=NC2=NC(NCCc3c[nH]c4ccccc34)=N[C@H](c3ccccc3)N2C(O)=C1 (stereo in doubt) [Compound 29, 2-{[2-(1H-indol-3-yl)ethyl]amino}-8-methyl-4-phenyl-4H-pyrimido[1,2-a][1,3,5]triazin-6-ol] | 0.9
CC1=NC2=NC(N3CCC(Cc4ccccc4)CC3)=N[C@H](c3ccccc3)N2C(O)=C1 (stereo in doubt) [Compound 30, 2-(4-benzylpiperidin-1-yl)-8-methyl-4-phenyl-4H-pyrimido[1,2-a][1,3,5]triazin-6-ol] | 0.6
CC1=NC2=NC(N3CCN(c4ccccc4)CC3)=N[C@H](c3ccc(Cl)cc3)N2C(O)=C1 (stereo in doubt) [Compound 31, 4-(4-chlorophenyl)-8-methyl-2-(4-phenylpiperazin-1-yl)-4H-pyrimido[1,2-a][1,3,5]triazin-6-ol] | 1.1
CC1=NC2=NC(N3CCC(Cc4ccccc4)CC3)=N[C@H](c3cccnc3)N2C(O)=C1 (stereo in doubt) [Compound 34, 2-(4-benzylpiperidin-1-yl)-8-methyl-4-(pyridin-3-yl)-4H-pyrimido[1,2-a][1,3,5]triazin-6-ol] | 1.0
O=C([C@H]1CCCO1)N1CCN(c2nnc(-c3ccccc3)c3ccccc23)CC1 (stereo in doubt) [Compound 42, 1-[4-(oxolane-2-carbonyl)piperazin-1-yl]-4-phenylphthalazine] | 0.6
Cc1ccc2nccc(C(=O)N3CCC[C@H](Cn4cc(C(C)(C)N)nn4)C3)c2c1 (stereo in doubt) [Compound 44, 2-[1-({1-[(6-methylquinolin-4-yl)carbonyl]piperidin-3-yl}methyl)-1H-1,2,3-triazol-4-yl]propan-2-amine] | 1.2
O=C(Nc1ccccc1)[C@H]1CCCN(C(=O)c2cc(C3CC3)nc3ccccc23)C1 (stereo in doubt) [Compound 45, 1-(2-cyclopropylquinoline-4-carbonyl)-N-phenylpiperidine-3-carboxamide] | 1.2
O=C(Nc1ccccc1)[C@H]1CCCN(C(=O)c2cc(-c3ccncc3)nc3ccccc23)C1 (stereo in doubt) [Compound 46, N-phenyl-1-[2-(pyridin-4-yl)quinoline-4-carbonyl]piperidine-3-carboxamide] | 1.1
COc1cc(C(=O)N2CCC[C@H](CNS(=O)(=O)c3cccs3)C2)c2ccccc2n1 (stereo in doubt) [Compound 48, N-{[1-(2-methoxyquinoline-4-carbonyl)piperidin-3-yl]methyl}thiophene-2-sulfonamide] | 1.0
Cc1cc(C(=O)N2CCC[C@H](c3ccc(C(=O)O)cc3)C2)c2ccc(F)cc2n1 (stereo in doubt) [Compound 49, 4-[1-(7-fluoro-2-methylquinoline-4-carbonyl)piperidin-3-yl]benzoic acid] | 1.6
Cc1cccc(C(=O)N2CCC[C@H](Cn3cc(C(C)(C)N)nn3)C2)c1C (stereo in doubt) [Compound 50, 2-(1-{[1-(2,3-dimethylbenzoyl)piperidin-3-yl]methyl}-1H-1,2,3-triazol-4-yl)propan-2-amine] | 1.1
COc1ccccc1[C@H]1N=C(N2CCC(Cc3ccccc3)CC2)N=C2N=C(C)C=C(O)N21 (stereo in doubt) [Compound 52, 2-(4-benzylpiperidin-1-yl)-4-(2-methoxyphenyl)-8-methyl-4H-pyrimido[1,2-a][1,3,5]triazin-6-ol] | 0.7
C[C@H](NC(=O)[C@@H]1Cc2c([nH]c3ccccc23)[C@H]2c3ccccc3C(=O)N21)C(=O)NC1CCCC1 [Compound 1, (2S)—N-cyclopentyl-2-{[(11 S)-9-oxo-10,20-diazapentacyclo[11.7.0.0^2,^10.0^3,^8.0^14,^19]icosa-1(13),3,5,7,14,16,18-heptaen-11-yl]formamido}propanamide] | 1.2 ± 0.2
